Assay results taken from the C3SDB collision cross section collection.
Values joined by “and” are separate entries in the source; they are usually repeats but may differ in a detail not shown here. Identical values can stand only once. One block for each compound: values may come before it.

Assays:
[1] = instrument: TW, calibrated with polyalanine
[2] = instrument: TW, calibrated with polyalanine; remark: listed apart in the source
[3] = [M+H]+; instrument: DT; stepped-field
[4] = instrument: DT, single field, calibrated with Agilent tune mix (Agilent)
[5] = instrument: DT, stepped-field
[6] = instrument: TW, calibrated with phosphatidylcholines (ESI+) and phosphatidylethanolamines (ESI-)
[7] = instrument: DT, stepped-field; remark: listed apart in the source
[8] = instrument: DT, single field
[9] = [M-H]-; instrument: TW; calibrated with phosphatidylcholines (ESI+) and phosphatidylethanolamines (ESI-)

collision cross section (N2) ([1]; [M+Na]+): 132 Å²
SMILES: O=C(O)C(CO)OP(=O)(O)O (configuration not stated) [2-Phosphoglyceric acid]

collision cross section (N2) ([1]; [M+H]+): 121 Å²
SMILES: O=C1CC[C@@H](C(=O)O)N1 [5-Oxoproline]

collision cross section (N2) ([1]; [M+H]+): 141 Å²
SMILES: CN(C)C(N)=NCCC[C@H](N)C(=O)O [ADMA]

collision cross section (N2) ([1]; [M+Na]+): 153 Å²
SMILES: CC(=O)N[C@@H]1[C@@H](O)[C@H](O)[C@@H](CO)O[C@H]1O [Acetylglucosamine]

collision cross section (N2) ([1]; [M+H]+): 133 Å²
SMILES: NC(N)=NCCC[C@H](N)C(=O)O [Arginine]

collision cross section (N2) ([1]; [M+Na]+): 138 Å²
SMILES: O=C(O)CC(O)(CC(=O)O)C(=O)O [Citric acid]

collision cross section (N2) ([2]; [M+H]+): 148 Å²
SMILES: CC1=C2C(=CO[C@H](C)[C@H]2C)C(=O)C(C(=O)O)=C1O [Citrinin]

collision cross section (N2) ([1]; [M+H]+): 132 Å²
SMILES: NC(=O)NCCC[C@H](N)C(=O)O [Citrulline]

collision cross section (N2) ([1]; [M+Na]+): 135 Å²
SMILES: OCC1(O)OC[C@@H](O)[C@@H](O)[C@@H]1O (some centres not stated) [Fructose]

collision cross section (N2) ([1]; [M+H]+): 176 Å²
SMILES: Nc1nc(=O)c2ncn([C@@H]3O[C@H](COP(=O)(O)O)[C@@H](O)[C@H]3O)c2[nH]1 [GMP]

collision cross section (N2) ([1]; [M+Na]+): 136 Å²
SMILES: OC[C@H]1OC(O)[C@H](O)[C@@H](O)[C@H]1O (some centres not stated) [Galactose]

collision cross section (N2) ([1]; [M+H]+): 150 Å²
SMILES: N[C@@H]1[C@@H](O)[C@H](O)[C@@H](COP(=O)(O)O)O[C@@H]1O [Glucosamine 6-phosphate]

collision cross section (N2) ([1]; [M+Na]+): 138 Å²
SMILES: OC[C@H]1OC(O)[C@H](O)[C@@H](O)[C@@H]1O (some centres not stated) [Glucose]

collision cross section (N2) ([1]; [M+Na]+): 140 Å²
SMILES: O=C(O)[C@H]1OC(O)[C@H](O)[C@@H](O)[C@@H]1O (some centres not stated) [Glucuronic acid]

collision cross section (N2) ([1]; [M+H]+): 129 Å²
SMILES: CC[C@H](C)[C@H](N)C(=O)O [Isoleucine]

collision cross section (N2) ([1]; [M+H]+): 127 Å²
SMILES: CSCC[C@H](N)C(=O)O [Methionine]

collision cross section (N2) ([1]; [M+H]+): 115 Å²
SMILES: O=C(O)c1cccnc1 [Nicotinic acid]

collision cross section (N2) [9]: 271.4 Å² | collision cross section (N2) ([5]; [M-H]-): 278.7 Å²
SMILES: CCCCC/C=C\C/C=C\CCCCCCCCCC(=O)O[C@H](COC(=O)CCCCCCCCCCCCCC)COP(=O)(O)OC[C@@H](O)CO [PG(35:2)]

collision cross section (N2) ([4]; [M+H]+): 292.1 Å² | collision cross section (N2) ([4]; [M+Na]+): 296.7 Å² | collision cross section (N2) ([4]; [M-H]-): 285.7 Å² | collision cross section (N2) ([5]; [M-H]-): 296.4 Å² | collision cross section (N2) ([6]; [M-H]-): 285.6 Å²
SMILES: CCCCC/C=C\C/C=C\C/C=C\CCCCC(=O)OC[C@H](COP(=O)(O)OC[C@H](N)C(=O)O)OC(=O)CCCCCCCCCCC/C=C\C/C=C\CCCCC [PS(40:5)]

collision cross section (N2) ([4]; [M+H]+): 289.6 Å² | collision cross section (N2) ([4]; [M+Na]+): 293.9 Å² | collision cross section (N2) ([4]; [M-H]-): 284.9 Å² | collision cross section (N2) ([5]; [M-H]-): 295.4 Å² | collision cross section (N2) ([6]; [M-H]-): 284.6 Å²
SMILES: CCCCC/C=C\C/C=C\C/C=C\C/C=C\CCCCCC(=O)O[C@H](COC(=O)CCCCCCC/C=C\C/C=C\CCCCC)COP(=O)(O)OC[C@H](N)C(=O)O [PS(40:6)]

collision cross section (N2) ([1]; [M+H]+): 135 Å²
SMILES: N[C@@H](Cc1ccccc1)C(=O)O [Phenylalanine]

collision cross section (N2) ([1]; [M+H]+): 179 Å²
SMILES: Nc1ncnc2c1ncn2[C@@H]1O[C@H](CSCC[C@H](N)C(=O)O)[C@@H](O)[C@H]1O [SAH]

collision cross section (N2) ([1]; [M]+): 184 Å²
SMILES: C[S+](CC[C@H](N)C(=O)[O-])C[C@H]1O[C@@H](n2cnc3c(N)ncnc32)[C@H](O)[C@@H]1O (some centres not stated) [SAMe]

collision cross section (N2) ([1]; [M+H]+): 139 Å²
SMILES: N[C@@H](Cc1ccc(O)cc1)C(=O)O [Tyrosine]

collision cross section (N2) ([1]; [M+H]+): 174 Å²
SMILES: O=c1ccn([C@@H]2O[C@H](COP(=O)(O)OP(=O)(O)O)[C@@H](O)[C@H]2O)c(=O)[nH]1 [UDP]

collision cross section (N2) ([1]; [M+Na]+): 170 Å²
SMILES: Cc1cn([C@H]2C[C@H](O)[C@@H](COP(=O)(O)O)O2)c(=O)[nH]c1=O [dTMP]

More lines, now with the values behind:

SMILES: CC(=O)O[C@@H]1C[C@]2(C)[C@@]3(CO)[C@H](O)C(=O)C(C)=C[C@H]3O[C@H]1[C@@]21CO1 [3-Acetyldeoxynivalenol]
collision cross section (N2) ([2]; [M+H3C2O2]-): 196 Å²

SMILES: CC(=O)OC[C@]12[C@H](O)C(=O)C(C)=C[C@H]1O[C@@H]1[C@H](O)C[C@@]2(C)[C@]12CO2 [15-Acetyldeoxynivalenol]
collision cross section (N2) ([2]; [M+H3C2O2]-): 196 Å²

SMILES: COc1cc2c(c3oc(=O)c4c(c13)CCC4=O)[C@@H]1C=CO[C@@H]1O2 [Aflatoxin B1]
collision cross section (N2) ([2]; [M+H]+): 161 Å² | collision cross section (N2) ([2]; [M+K]+): 177.1 Å² | collision cross section (N2) ([2]; [M+Na]+): 164 Å²

SMILES: COc1cc2c(c3oc(=O)c4c(c13)CCOC4=O)C1C=COC1O2 (configuration not stated) [Aflatoxin G1]
collision cross section (N2) ([2]; [M+H]+): 164 Å² | collision cross section (N2) ([2]; [M+K]+): 180.2 Å² | collision cross section (N2) ([2]; [M+Na]+): 176.5 Å²

SMILES: COc1cc2c(c3oc(=O)c4c(c13)CCC4=O)[C@]1(O)C=CO[C@@H]1O2 [Aflatoxin M1]
collision cross section (N2) ([2]; [M+H]+): 166 Å² | collision cross section (N2) ([2]; [M+K]+): 177.8 Å² | collision cross section (N2) ([2]; [M+Na]+): 179.5 Å²

SMILES: CC(=O)C1=C(O)[C@@H]2[C@H]3c4c[nH]c5cccc(c45)C[C@H]3C(C)(C)N2C1=O [Cyclopiazonic acid]
collision cross section (N2) ([2]; [M-H]-): 174 Å²

SMILES: CC1=C[C@H]2O[C@@H]3[C@H](O)C[C@](C)([C@@]2(CO)[C@H](O)C1=O)[C@]31CO1 [Deoxynivalenol]
collision cross section (N2) ([2]; [M+H3C2O2]-): 183 Å²

SMILES: CC(C)[C@H]1C(=O)O[C@H](C(C)C)C(=O)N(C)[C@@H](C(C)C)C(=O)O[C@H](C(C)C)C(=O)N(C)[C@@H](C(C)C)C(=O)O[C@H](C(C)C)C(=O)N1C [Enniatin B]
collision cross section (N2) ([2]; [M+H]+): 244.1 Å² | collision cross section (N2) ([2]; [M+K]+): 251.1 Å² | collision cross section (N2) ([2]; [M+NH4]+): 248 Å² | collision cross section (N2) ([2]; [M+Na]+): 248.9 Å²

SMILES: CCCC[C@@H](C)[C@@H](OC(=O)C[C@@H](CC(=O)O)C(=O)O)[C@H](C[C@@H](C)CCCCCC[C@@H](O)C[C@H](O)[C@H](C)N)OC(=O)C[C@@H](CC(=O)O)C(=O)O [Fumonisin B2]
collision cross section (N2) ([2]; [M+H]+): 258 Å² | collision cross section (N2) ([2]; [M+K]+): 264.5 Å² | collision cross section (N2) ([2]; [M+Na]+): 259.2 Å²

SMILES: Nc1nc(=O)c2[nH]cnc2[nH]1 [Guanine]
collision cross section (N2) ([1]; [M+H]+): 124 Å² | collision cross section (N2) [3]: 133.55 Å²

SMILES: CCCC[C@@H](C)[C@@H](O)[C@@H](O)C[C@@H](C)C[C@H](O)CCCC[C@@H](O)C[C@H](O)[C@H](C)N [HFB1]
collision cross section (N2) ([2]; [M+K]+): 214 Å² | collision cross section (N2) ([2]; [M+Na]+): 209.7 Å²

SMILES: CC(=O)OC[C@]12C[C@H](OC(=O)CC(C)C)C(C)=C[C@H]1O[C@@H]1[C@H](O)[C@@H](O)[C@@]2(C)[C@]12CO2 [HT-2 toxin]
collision cross section (N2) ([2]; [M+NH4]+): 203 Å²

SMILES: CCCCCCCC/C=C\CCCCCCCC(=O)OC[C@@H](O)COP(=O)([O-])OCC[N+](C)(C)C [LPC(18:1)]
collision cross section (N2) ([4]; [M+HCOO]-): 238.6 Å² | collision cross section (N2) ([4]; [M+Na]+): 236.1 Å² | collision cross section (N2) ([5]; [M+H]+): 236.2 Å² | collision cross section (N2) ([6]; [M+H]+): 230.8 Å² | collision cross section (N2) [3]: 235.59 Å² and 236.1 Å²

SMILES: CC1=C[C@H]2O[C@@H]3[C@H](O)[C@@H](O)[C@](C)([C@@]2(CO)[C@H](O)C1=O)[C@]31CO1 [Nivalenol]
collision cross section (N2) ([2]; [M+H3C2O2]-): 180 Å²

SMILES: CCCCCC/C=C\CCCCCCCCCC(=O)OC[C@H](COP(=O)([O-])OCC[N+](C)(C)C)OC(=O)CCCCCCC/C=C\CCCCCC [PC(34:2)]
collision cross section (N2) ([4]; [M+HCOO]-): 285.5 Å² | collision cross section (N2) ([4]; [M+H]+): 285.2 Å² | collision cross section (N2) ([4]; [M+Na]+): 289.4 Å² | collision cross section (N2) ([5]; [M+H]+): 302.6 Å² | collision cross section (N2) ([6]; [M+CH3COO]-): 287.7 Å² | collision cross section (N2) ([6]; [M+H]+): 281.7 Å² | collision cross section (N2) ([7]; [M+K]+): 291.3 Å² | collision cross section (N2) ([8]; [M+H]+): 282.64 Å² and 284.2 Å²

SMILES: CCCCCCCC/C=C\CCCCCCCCCCCC(=O)OC[C@H](COP(=O)([O-])OCC[N+](C)(C)C)OC(=O)CCCCCCCCCCCCC [PC(36:1)]
collision cross section (N2) ([4]; [M+HCOO]-): 292.3 Å² | collision cross section (N2) ([4]; [M+H]+): 293.9 Å² | collision cross section (N2) ([4]; [M+Na]+): 297.1 Å² | collision cross section (N2) ([5]; [M+H]+): 306.2 Å² | collision cross section (N2) ([6]; [M+CH3COO]-): 294.5 Å² | collision cross section (N2) ([6]; [M+H]+): 291.6 Å² | collision cross section (N2) ([8]; [M+H]+): 292.57 Å² | collision cross section (N2) ([8]; [M+Na]+): 294 Å²

SMILES: CCCCC/C=C\C/C=C\CCCCCCCCCCCC(=O)O[C@H](COC(=O)CCCCCCC/C=C\CCCCCC)COP(=O)(O)OCCN [PE(38:3)]
collision cross section (N2) ([4]; [M-H]-): 273.3 Å² | collision cross section (N2) ([5]; [M+H]+): 297.1 Å² | collision cross section (N2) ([6]; [M-H]-): 271.7 Å² | collision cross section (N2) ([7]; [M+Na]+): 289.3 Å²

SMILES: CCCCC/C=C\C/C=C\C/C=C\C/C=C\CCCCCC(=O)O[C@H](COC(=O)CCCCCCC/C=C\C/C=C\CCCCC)COP(=O)(O)OCCN [PE(40:6)]
collision cross section (N2) ([4]; [M+H]+): 284.5 Å² | collision cross section (N2) ([4]; [M+Na]+): 290.3 Å² | collision cross section (N2) ([4]; [M-H]-): 276.2 Å² | collision cross section (N2) ([5]; [M-H]-): 289.4 Å² | collision cross section (N2) ([6]; [M+H]+): 282.9 Å² | collision cross section (N2) ([6]; [M-H]-): 275.4 Å² | collision cross section (N2) ([7]; [M+K]+): 294.7 Å²

SMILES: CC(C)(O)[C@H]1O[C@H]2CC[C@@]3(C)[C@@](O)(CC[C@H]4Cc5c([nH]c6ccccc56)[C@@]43C)C2=CC1=O [Paxilline]
collision cross section (N2) ([2]; [M+H]+): 201 Å²

SMILES: C=CC(C)(C)C12CC3C(=O)N/C(=C/c4cnc[nH]4)C(=O)N3C1Nc1ccccc12 (configuration not stated) [Roquefortine C]
collision cross section (N2) ([2]; [M+H]+): 179 Å²

SMILES: COc1cc2c(c3oc4cccc(O)c4c(=O)c13)[C@@H]1C=CO[C@@H]1O2 [Sterigmatocystin]
collision cross section (N2) ([2]; [M+H]+): 163 Å²

SMILES: C[C@H]1CCC[C@@H](O)CCC/C=C/c2cc(O)cc(O)c2C(=O)O1 [beta-zearalenol]
collision cross section (N2) ([2]; [M-H]-): 173 Å²
